Measured values as given in ChEMBL document CHEMBL1201862, “PubChem BioAssay data set” (2004).
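Assay format: 96-well plates, 48-hour exposure. The concentration for 50% growth inhibition is given as GI50.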 The source made the active and inactive calls. Cut-off read from the data, not from the text of the source: active = GI50 up to about 1.1 µM and inactive = higher.

What was measured:
Assay in all cases: NCI-60 cell line screen, 48 h
HCC 2998 = tested on: HCC 2998
SF-295 = tested on: SF-295
RXF 393 = tested on: RXF 393
DU-145 = tested on: DU-145
UACC-257 = tested on: UACC-257
NCI-H522 = tested on: NCI-H522
NCI-H460 = tested on: NCI-H460
CCRF-CEM = tested on: CCRF-CEM
RPMI-8226 = tested on: RPMI-8226
OVCAR-8 = tested on: OVCAR-8
NCI-H23 = tested on: NCI-H23
SF-268 = tested on: SF-268
HCT-15 = tested on: HCT-15
SNB-75 = tested on: SNB-75
HOP-92 = tested on: HOP-92
LOX IMVI = tested on: LOX IMVI
MDA-MB-231 = tested on: MDA-MB-231
Hs-578T = tested on: Hs-578T
A498 = tested on: A498

Structure (SMILES)	GI50 (HCC 2998)	GI50 (SF-295)	GI50 (RXF 393)	GI50 (DU-145)	GI50 (UACC-257)	GI50 (NCI-H522)	GI50 (NCI-H460)	GI50 (CCRF-CEM)	GI50 (RPMI-8226)	GI50 (OVCAR-8)	GI50 (NCI-H23)	GI50 (SF-268)	GI50 (HCT-15)	GI50 (SNB-75)	GI50 (HOP-92)	GI50 (LOX IMVI)	GI50 (MDA-MB-231)	GI50 (Hs-578T)	GI50 (A498)
NC(=S)N/N=C1\CCCCc2ccccc21	> 10 µM (inactive)	> 10 µM (inactive)	> 10 µM (inactive)	> 10 µM (inactive)	> 10 µM (inactive)	> 10 µM (inactive)	> 10 µM (inactive)	> 10 µM (inactive)	> 10 µM (inactive)	> 10 µM (inactive)	> 10 µM (inactive)	> 10 µM (inactive)	> 10 µM						
COc1cc(N(CCC#N)CCC#N)ccc1/C=N\NC(=O)c1ccc(C)cc1		> 100 µM (inactive)	> 100 µM (inactive)	> 100 µM (inactive)	> 100 µM (inactive)	> 100 µM (inactive)	> 100 µM (inactive)	> 100 µM (inactive)		> 100 µM (inactive)	> 100 µM (inactive)	> 100 µM (inactive)	> 100 µM	> 100 µM (inactive)	> 100 µM (inactive)	> 100 µM (inactive)	18.2 µM (inactive)	> 100 µM (inactive)	
C=CCN1C(=O)C[C@H](Cc2ccccc2)NC(=O)C[C@H](Cc2ccccc2)N(CC=C)C(=O)C[C@H](Cc2ccccc2)NC(=O)C[C@@H]1Cc1ccccc1		23.6 µM (inactive)	7.14 µM (inactive)	> 100 µM (inactive)	6.97 µM (inactive)		5.42 µM (inactive)	4.76 µM (inactive)	2.76 µM (inactive)	39.4 µM (inactive)	> 100 µM (inactive)	6.12 µM (inactive)	12.2 µM	3.92 µM (inactive)	4.48 µM (inactive)	3.99 µM (inactive)	8.79 µM (inactive)	> 100 µM (inactive)	7.01 µM (inactive)
Cc1oc(N)c(S(=O)(=O)/C(C#N)=C/c2ccccc2[N+](=O)[O-])c1C	32.1 µM (inactive)	33.9 µM (inactive)	21.9 µM (inactive)	62.4 µM (inactive)	32.2 µM (inactive)	19.1 µM (inactive)	31.1 µM (inactive)	24.1 µM (inactive)	27.9 µM (inactive)		23.6 µM (inactive)	31 µM (inactive)	26.5 µM	33.2 µM (inactive)	34.7 µM (inactive)	14 µM (inactive)	32.9 µM (inactive)		85.5 µM (inactive)
O=C1C=Cc2c(I)sc(I)c21	18.4 µM (inactive)	46.8 µM (inactive)	20.6 µM (inactive)	30 µM (inactive)	20 µM (inactive)	1.99 µM (inactive)	> 100 µM (inactive)	2.88 µM (inactive)		18.9 µM (inactive)	18.9 µM (inactive)	12.4 µM (inactive)	17.3 µM	30.1 µM (inactive)	17 µM (inactive)	12.1 µM (inactive)	29.9 µM (inactive)		48.5 µM (inactive)
CSC(SC)=C(C#N)C(=O)Nc1cccc(Cl)c1	75.5 µM (inactive)	42.6 µM (inactive)	> 100 µM (inactive)		> 100 µM (inactive)	17.5 µM (inactive)	59.8 µM (inactive)	33.1 µM (inactive)		48.8 µM (inactive)		> 100 µM (inactive)	38.4 µM	> 100 µM (inactive)	21 µM (inactive)	93.3 µM (inactive)	> 100 µM (inactive)	> 100 µM (inactive)	61.1 µM (inactive)
CCOC(=O)CC1C(C(=O)OCC)=Cn2c([nH]c3cccc4cccc2c43)=C1C(=O)OCC (centres undefined)	> 100 µM (inactive)	> 100 µM (inactive)	> 100 µM (inactive)	> 100 µM (inactive)	> 100 µM (inactive)		> 100 µM (inactive)	> 100 µM (inactive)	> 100 µM (inactive)	> 100 µM (inactive)	> 100 µM (inactive)		> 100 µM	> 100 µM (inactive)	> 100 µM (inactive)	> 100 µM (inactive)			> 100 µM (inactive)
Cc1nn2c(N)cc(=O)nc2nc1/C=C/c1ccc(N(C)C)cc1	3.18 µM (inactive)	> 79.3 µM (inactive)	98.6 µM (inactive)	> 100 µM (inactive)	17.3 µM (inactive)	1.66 µM (inactive)	6.89 µM (inactive)	< 0.01 µM (active)	10.1 µM (inactive)	> 25.2 µM (inactive)	10.4 µM (inactive)	> 100 µM (inactive)				4.11 µM (inactive)		6.84 µM (inactive)	
CN(C(=O)/C=C/c1ccccc1)C1C2CN3CCC(O2)C13 (centres undefined)	> 100 µM (inactive)	> 100 µM (inactive)	> 100 µM (inactive)		> 100 µM (inactive)	> 100 µM (inactive)	> 100 µM (inactive)	> 100 µM (inactive)		> 100 µM (inactive)	> 100 µM (inactive)	> 100 µM (inactive)	> 100 µM	> 100 µM (inactive)		> 100 µM (inactive)			> 100 µM (inactive)
